# Source: patent US5665714A, “N-substituted glycerophosphoethanolamines” (Clarion Pharmaceuticals Inc., priority 1996, dated 1997)
# Tests used:
# [1] = tested on: PAF (Platelet Activating Factor)-induced increase in TPR (Total Pulmonary Resistance); assay: Assay for anti-PAF activity in anesthetized guinea pigs (PAF-induced increase in total pulmonary resistance); type: in vivo, guinea pig; conditions: for PAF-induced increase in TPR, % of Controls: n = 5, PAF Control 112.2
# Experimental: FIG. 5 is a graphical representation of results from an in vivo antagonism of PAF (Platelet Activating Factor)-induced increase in TPR (Total Pulmonary Resistance) by the compound of the invention, designated CPR 3003.
# Assay for Anti-PAF Activity in Anesthetized Guinea Pigs
# Guinea pigs of 650-1000 g were used in order to facilitate catheterization of the jugular vein and carotid artery. The guinea pigs were anesthetized with 35-45 mg/kg pentobarbital sodium. When or if the recordings described below were unstable, anesthetic additions were made during the course of the intervention. The cutdown was a ventral medial incision over the cervical area so that the trachea, jugular vein and carotid artery could be cannulated. The animals were immediately attached to a volume regulated Harvard® rodent respirator, Model 683, via a tracheostomy and the respirator was set at 60 respirations per minute and a volume of 8 ml/kg to maintain a normal arterial PCO2 of approximately 40 mm Hg. Pancuronium bromide, a muscle relaxant, was then given intravenously at a dose of 0.2 mg/kg to prevent spontaneous breathing. A tube was connected to the respirator pump and the endotracheal catheter was attached to a pressure-transducing strain gauge and then to a 2-channel Gilson® physiological recorder. One channel of the recorder inscribed the pressure tracing from the airway; the second channel inscribed the pressure tracing from a similar strain gauge attached directly to a catheter inserted into the carotid artery. These two parameters were measured before and after each drug was given and at each increment in the dose response studies with each drug candidate and recorded. Total pulmonary resistance (TPR) was calculated as the difference between the expiratory pressure and inspiratory pressures with a constant volume.
# After the anesthetic and muscle relaxant were given, the animal was allowed to stabilize. The airway was gently suctioned with a syringe and the lungs are briefly inflated by closing the expiratory port on the ventilator until the pressure was approximately three times resting pressure. When the pressure returned to a steady state, this TPR was considered control pressure. The dose-related increases or decreases were quantitated against these controls to determine the percent inhibition of PAF activity. Two doses of PAF were given as controls before the test compound was administered.
# Decreases of TPR in a dose-related way indicate an inhibition of the constrictor activity of PAF on the airway.
# [2] = tested on: HT-29 human colon carcinoma cell line; assay: in vitro HT 29 cell inhibition assay (anti-tumor/antineoplastic activity, sulforhodamine B); type: cell-based; conditions: HT-29, 48 hours, 0 to 100 μM, FIG. 2, read-out: marked inhibition of cell growth at concentrations above
# Excerpt: FIG. 2 is a graphical representation of results from an in vitro HT 29 cell inhibition assay of two compounds of the invention, designated CPR 3003 and CPR 3004.
# (§1) Assay for Anti-Tumor/Antineoplastic Activity
# (§2) 1. Human tumor cell lines, available from the American Type Culture Collection (ATCC):
# b. HT-29 (ATCC HTB 38): a human colon carcinoma cell line (attachment dependent).
# b. for cell line 1-b: 1:1 DMEM and Ham's F-12 (DMEM/F12) plus 10% FBS.
# (§3) 3. Standard protocol for culturing cell lines: in T-75 or T-150 flasks; 37° C.; 95% air, 5% CO2; 100% humidity.
# (§4) a. Cell lines 1-a and 1-b are passaged when approximately 80% confluent; with trypsin (1 mg/mL) and EDTA (1 mM EDTA in Ca-Mg free Hank's balanced salt solution); at a 1:4 to 1:5 split.
# b. All procedures are performed aseptically in a Class II biological safety cabinet using standard BL-2 containment procedures. […]
# (§5) h. Read absorbance at 564 nm using a standard 96-well microtiter plate reader. Absorbance readings are linear with dye concentrations below 1.8 absorbance units. To reduce absorbance, decrease wavelength at which measurements are taken.
# (§6) a. For a single point reading, a higher absorbance indicates a higher cell number; […]
# (§7) d. Calculate CN (cell number as % of Control): [formula] where A(test compound) is absorbance with test compound present in the culture medium, A(control) is absorbance of control, and A(background) is absorbance of background;
# [3] = tested on: MDA-MB-231 estrogen receptor negative human breast carcinoma cell line; assay: in vitro MDA-MB-231 cell inhibition assay (anti-tumor/antineoplastic activity, sulforhodamine B); type: cell-based; conditions: MDA-MB-231, 48 hours, 0 to 100 μM, FIG. 1, read-out: marked inhibition of cell growth at concentrations above
# Excerpt: FIG. 1 is a graphical representation of results from an in vitro MDA-MB-231 cell inhibition assay of two compounds of the invention, designated CPR 3003 and CPR 3004.
# as §1, §2
# a. MDA-MB-231 (ATCC HTB 26): an estrogen receptor negative human breast carcinoma cell line (attachment dependent); and
# a. for cell line 1-a: Dulbecco's Modified Eagle's Medium (DMEM) plus 10% Fetal Bovine Serum (FBS); and
# as §3, §4
# b. […]
# as §5, §6, §7
# [4] = tested on: PAM-212 murine keratinocyte cell line; assay: Assay for anti-psoriatic activity by inhibition of keratinocyte proliferation (PAM-212); type: cell-based, murine (BALB/c mice); conditions: Mus musculus, PAM212; PAM-212, 48 hours, FIG. 3; read-out: marked inhibition of keratinocyte-proliferation at concentrations above
# Excerpt: FIG. 3 is a graphical representation of results from an in vitro PAM-212 cell inhibition assay of two compounds of the invention, designated CPR 3003 and CPR 3004.
# Assay for Anti-psoriatic Activity by Inhibition of Keratinocyte Proliferation
# 1. Cell line: PAM-212 murine keratinocyte cell line isolated and cultivated from newborn BALB/c mice (see S. H. Yuspa et al., Cancer Research, 40, 4694-4703, December, 1980) that appears to retain many characteristics of normal keratinocytes.
# 2. Culture medium: 1:1 DMEM and Ham's F-12 with 10% FBS.
# 3. Culture conditions are the same as those described previously in parts 3(a) and 3(b) of Example 9.
# 4. Methodology is the same as that described previously in part 4 of Example 9, except that, with reference to part 4 (b), cell concentration is adjusted to 1,000 cells per 100 μL (rather than 5,000 cells per 100 μL), and, with reference to part 4(e), test compounds are diluted in DMEM/F12 prior to addition to cell wells.
# 5. End point determination and data analysis are done as described previously in parts 5 and 6 of Example 9.
# [5] = tested on: RAW 264.7 murine monocyte/macrophage line; assay: Assay for anti-inflammatory activity by inhibition of macrophage chemiluminescence (RAW 264.7, PMA, luminol); type: cell-based; conditions: 1 minute
# Excerpt: FIG. 4 is a graphical representation of results from an in vitro RAW 264.7 cell macrophage inhibition chemiluminescence assay of two compounds of the invention, designated CPR 3003 and CPR 3004.
# Assay for Anti-inflammatory Activity by Inhibition of Macrophage Chemiluminescence
# The RAW 264.7 cell line (available from the ATCC under accession no. TIB 71) is a murine monocyte/macrophage line the cells of which show many of the differentiative functions of a macrophage. Like macrophages, the cells are capable of phagocytosis and undergo a respiratory burst (increased oxygen consumption) and production of oxygen radicals (e.g., superoxide) in response to appropriate activation signals. Agents that inhibit the activation of these cells in vitro, so as to inhibit the respiratory burst and corresponding production of oxygen radicals associated with the activation, are therefore inhibitors of macrophage activation and critical steps in inflammatory processes. These agents are likely, then, to be anti-inflammatories.
# The respiratory burst and corresponding production of oxygen radicals that accompany macrophage activation can be measured in a variety of ways, including chemiluminescence based on the reaction of the oxygen radicals with luminol added to the culture medium (see M. A. Trush et al, 1978, "The Generation of Chemiluminescence by Phagocytic Cells." Methods in Enzymology 57: 462-494). Indeed, chemiluminescence generated from luminol in the culture medium of macrophage cell lines is recognized in the art as a marker of macrophage activation.
# 1. Cell line: RAW 264.7 (ATCC TIB 71);
# 2. Culture medium: DMEM with 10% FBS (attachment dependent);
# 3. Standard protocol for culturing cell lines: in T-75 or T-150 flasks; 37° C.; 95% air, 5% CO2; 100% humidity;
# 4. Cell lines are passaged when approximately 80% confluent with trypsin (1 mg/mL) and EDTA ([…] in Ca-Mg free Hank's balanced salt solution), at a 1:4 to 1:5 split;
# 5. Trypsinize the cells and count with a hemocytometer;
# 6. Adjust concentration of cells to approximately 1,000,000 cells per mL;
# 7. Suspend cells in DMEM lacking phenol red and without FBS;
# 8. Pipette 1 mL, into a standard luminometer cuvet (12×75), commercially available from Analytical Luminescence Laboratories (San Diego, Calif.);
# 9. Add luminol to final concentration of 1 μM;
# 10. Add test compound at concentrations of 0, 1, 3, 10, or 30 μM;
# 11. Add 100 nanograms of phorbol myristate acetate (PMA);
# 12. Wait 1 minute and read photo counts (i.e., luminescence) on a Monolight 2010 luminometer available from Analytical Luminescence Laboratories;
# 13. The results are represented in FIG. 4, which illustrates the marked decrease in measured luminescence by the compounds tested at concentrations above 1 μM. Results are calculated as percent of control (no test compound present);
# 14. The results are also presented in Table 1, which tabulates the measured luminescence units at the indicated concentration of tested compound.
# tumor = conditions: Andreesen, Prog. Biochem. Pharmacol. 22, 118-131; cited from earlier work
smiles,measurement,setting,value
"CCCCCCCCCCCCCCCCCCOCC(COP(=O)(O)OCCNC1=NCCN1C1=NCCN1)OC (stereo not shown) [CPR 3003, 1-O-n-octadecyl-2-O-methyl-glycero-3-phospho-N-[3-(2-imidazolinyl)-2-imidazolinyl]-ethanolamine]","PAF-induced increase in TPR, % of Controls",[1]; 1 μM,110 % of Controls
same,"PAF-induced increase in TPR, % of Controls",[1]; 10 μM,7 % of Controls
same,"PAF-induced increase in TPR, % of Controls",[1]; .1 μM,232.2 % of Controls
same,change of PAF-induced increase in TPR,"[1]; incremental doses of 0.1, 1, and 10 μM",change the PAF-induced increase in TPR in all animals
same,minimal effective concentration,[2],> 3 µM
same,minimal effective concentration,[3],> 3 µM
same,minimal effective concentration,[4],> 10 µM
same,measured luminescence,[5]; 1 μM test compound,"2,051,640 Luminescence Units"
same,measured luminescence,[5]; 3 μM test compound,"755,617 Luminescence Units"
same,measured luminescence,[5]; 10 μM test compound,"224,213 Luminescence Units"
same,measured luminescence,[5]; 30 μM test compound,"18,228 Luminescence Units"
"CCCCCCCCCCCCCCCCCCOC[C@H](COP(=O)([O-])OCC[N+](C)(C)C)OC [ET 18-OCH3, 1-O-octadecyl-2-O-methyl-sn-glycero-3-phosphocholine]",anti-tumor activity,tumor,markedly potent anti-tumor activity
"CCCCCCCCCCCCCCCCCCOCC(COP(=O)(O)OCCNC1=NCCN1)OC (stereo not shown) [CPR 3004, 1-O-n-octadecyl-2-O-methyl-glycero-3-phospho-N-(2-imidazolinyl)-ethanolamine]",minimal effective concentration,[2],> 3 µM
same,minimal effective concentration,[3],> 3 µM
same,minimal effective concentration,[4],> 10 µM
same,measured luminescence,[5]; 1 μM test compound,"524,414 Luminescence Units"
same,measured luminescence,[5]; 3 μM test compound,"134,836 Luminescence Units"
same,measured luminescence,[5]; 10 μM test compound,"23,849 Luminescence Units"
same,measured luminescence,[5]; 30 μM test compound,"6,128 Luminescence Units"
